Measurements as given in US20160176880A1, “SUBSTITUTED IMIDAZO[1,2-A]PYRAZINECARBOXAMIDES AND USE THEREOF” (BAYER PHARMA AKTIENGESELLSCHAFT, priority 2013, published 2016).
Structures can show the parent of a compound that is named as a salt.

Biological target: T1, recombinant guanylate cyclase reporter cell line (Rattus norvegicus, UniProt P19686+P20595)
T1 construct: expressed in transfected cells
T1 sequence (P19686 1-690): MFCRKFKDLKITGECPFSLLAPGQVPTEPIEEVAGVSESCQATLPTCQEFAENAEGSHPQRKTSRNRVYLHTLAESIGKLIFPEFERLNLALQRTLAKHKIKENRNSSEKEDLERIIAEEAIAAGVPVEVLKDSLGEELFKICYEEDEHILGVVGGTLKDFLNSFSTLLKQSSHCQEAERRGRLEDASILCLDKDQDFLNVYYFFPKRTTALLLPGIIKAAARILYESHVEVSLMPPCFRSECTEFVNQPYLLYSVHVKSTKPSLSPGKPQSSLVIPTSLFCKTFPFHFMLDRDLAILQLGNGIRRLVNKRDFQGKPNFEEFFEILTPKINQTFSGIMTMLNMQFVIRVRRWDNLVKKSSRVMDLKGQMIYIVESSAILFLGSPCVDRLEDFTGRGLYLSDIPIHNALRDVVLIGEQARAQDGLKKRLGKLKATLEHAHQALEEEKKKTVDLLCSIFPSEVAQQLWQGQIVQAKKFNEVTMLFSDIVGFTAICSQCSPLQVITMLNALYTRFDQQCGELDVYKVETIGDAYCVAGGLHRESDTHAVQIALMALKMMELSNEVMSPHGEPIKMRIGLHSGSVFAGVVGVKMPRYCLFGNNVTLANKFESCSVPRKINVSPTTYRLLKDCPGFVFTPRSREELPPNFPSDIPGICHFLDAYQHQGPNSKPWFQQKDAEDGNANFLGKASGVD
T1 sequence (P20595 1-619): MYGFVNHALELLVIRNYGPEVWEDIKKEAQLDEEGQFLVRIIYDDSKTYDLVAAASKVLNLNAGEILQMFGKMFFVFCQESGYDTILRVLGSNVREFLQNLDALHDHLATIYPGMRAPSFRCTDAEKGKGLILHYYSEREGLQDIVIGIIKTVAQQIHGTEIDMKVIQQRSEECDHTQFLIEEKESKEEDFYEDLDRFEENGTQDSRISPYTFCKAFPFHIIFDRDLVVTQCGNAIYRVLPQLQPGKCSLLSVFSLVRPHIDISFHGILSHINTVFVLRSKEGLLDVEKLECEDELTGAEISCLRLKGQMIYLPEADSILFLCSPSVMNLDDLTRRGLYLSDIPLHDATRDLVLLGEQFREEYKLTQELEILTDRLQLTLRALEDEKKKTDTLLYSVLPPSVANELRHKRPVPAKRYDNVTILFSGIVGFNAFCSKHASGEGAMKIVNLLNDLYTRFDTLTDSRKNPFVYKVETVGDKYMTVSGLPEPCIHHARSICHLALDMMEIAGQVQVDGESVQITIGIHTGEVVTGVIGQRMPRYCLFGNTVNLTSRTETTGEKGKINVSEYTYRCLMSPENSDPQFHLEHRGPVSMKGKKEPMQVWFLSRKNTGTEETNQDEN
Experiment: Effect on a recombinant guanylate cyclase reporter cell line
Assay type: cell-based
Details: MEC = minimum effective concentration; in some cases mean values for individual determinations
Description: B-2. Effect on a Recombinant Guanylate Cyclase Reporter Cell Line
The cellular action of the compounds of the invention is determined using a recombinant guanylate cyclase reporter cell line, as described in F. Wunder et al., Anal. Biochem. 339, 104-112 (2005).
Representative MEC values (MEC=minimum effective concentration) for the compounds of the invention are shown in the table below (in some cases as mean values for individual determinations): […]

| Structure (SMILES) | MEC [µM] |
| --- | --- |
| Cc1cn2c(C(=O)Nc3c(C(F)(F)F)n[nH]c3C)c(C)nc2c(OCc2c(F)cccc2F)n1 [Example 27, 8-[(2,6-difluorobenzyl)oxy]-2,6-dimethyl-N-[5-methyl-3-(trifluoromethyl)-1H-pyrazol-4-yl]imidazo[1,2-a]pyrazine-3-carboxamide] | 1 |
| Cc1cn2c(C(=O)NNC(=O)CN(C)C)c(C)nc2c(OCc2c(F)cccc2F)n1 [Example 53, 8-[(2,6-difluorobenzyl)oxy]-N′-[(dimethylamino)acetyl]-2,6-dimethylimidazo[1,2-a]pyrazine-3-carbohydrazide] | 3.0 |
| Cc1cn2c(C(=O)NCC(C)(N)C3CC3)c(C)nc2c(OCc2c(F)cccc2F)n1 (racemic) [Example 20, rac-N-(2-amino-2-cyclopropylpropyl)-8-[(2,6-difluorobenzyl)oxy]-2,6-dimethylimidazo[1,2-a]pyrazine-3-carboxamide] | 3 |
| Cc1cn2c(C(=O)NNC3CCCC3O)c(C)nc2c(OCc2c(F)cccc2F)n1 (mixture of isomers) [Example 54, 8-[(2,6-difluorobenzyl)oxy]-N′-(2-hydroxycyclopentyl)-2,6-dimethylimidazo[1,2-a]pyrazine-3-carbohydrazide trifluoroacetate (mixture of stereoisomers)] | 1.0 |
| Cc1cn2c(C(=O)Nc3ccnc4ccc(F)cc34)c(C)nc2c(OCc2c(F)cccc2F)n1 [Example 10, 8-[(2,6-Difluorobenzyl)oxy]-N-(6-fluoroquinolin-4-yl)-2,6-dimethylimidazo[1,2-a]pyrazine-3-carboxamide] | 0.3 |
| Cc1cn2c(C(=O)NC3CC3c3ccccc3)c(C)nc2c(OCc2c(F)cccc2F)n1 (racemic) [Example 17, rac-8-[(2,6-difluorobenzyl)oxy]-2,6-dimethyl-N-(2-phenylcyclopropyl)imidazo[1,2-a]pyrazine-3-carboxamide] | 10 |
| Cc1cn2c(C(=O)N[C@H]3CCOC3=O)c(C)nc2c(OCc2c(F)cccc2F)n1 [Example 34, 8-[(2,6-difluorobenzyl)oxy]-2,6-dimethyl-N-[(3S)-2-oxotetrahydrofuran-3-yl]imidazo[1,2-a]pyrazine-3-carboxamide] | 3 |
| Cc1cn2c(C(=O)Nc3cnn4ccccc34)c(C)nc2c(OCc2c(F)cccc2F)n1 [Example 30, 8-[(2,6-difluorobenzyl)oxy]-2,6-dimethyl-N-(pyrazolo[1,5-a]pyridin-3-yl)imidazo[1,2-a]pyrazine-3-carboxamide] | 3 |
| Cc1cn2c(C(=O)NCC(C)(N)CCC(F)(F)F)c(C)nc2c(OCc2c(F)cccc2F)n1 (single isomer, unassigned; enantiomer b) [Example 38, ent-N-(2-Amino-5,5,5-trifluoro-2-methylpentyl)-8-[(2,6-difluorobenzyl)oxy]-2,6-dimethylimidazo[1,2-a]pyrazine-3-carboxamide (enantiomer B)] | 0.3 |
| CCCC(C)(N)CNC(=O)c1c(C)nc2c(OCc3c(F)cccc3F)nc(C)cn12 (single isomer, unassigned; enantiomer b) [Example 39, ent-N-(2-Amino-2-methylpentyl)-8-[(2,6-difluorobenzyl)oxy]-2,6-dimethylimidazo[1,2-a]pyrazine-3-carboxamide (enantiomer B)] | 0.2 |
| CCCC[C@H](C)NC(=O)c1c(C)nc2c(OCc3c(F)cccc3F)nc(C)cn12 [Example 2, 8-[(2,6-Difluorobenzyl)oxy]-N-[(2S)-hexan-2-yl]-2,6-dimethylimidazo[1,2-a]pyrazine-3-carboxamide] | 1 |
| Cc1cn2c(C(=O)Nc3cnn(CC(F)(F)F)c3)c(C)nc2c(OCc2c(F)cccc2F)n1 [Example 24, 8-[(2,6-difluorobenzyl)oxy]-2,6-dimethyl-N-[1-(2,2,2-trifluoroethyl)-1H-pyrazol-4-yl]imidazo[1,2-a]pyrazine-3-carboxamide] | 3 |
